According to ChEMBL document CHEMBL5154747, “Discovery of new carbonic anhydrase IX inhibitors as anticancer agents by toning the hydrophobic and hydrophilic rims of the active site to encounter the dual-tail approach” (Eur J Med Chem, 2022):

What was measured:
SNB-19 = assay: Anticancer activity against human SNB-19 cells assessed as cell growth inhibition at 10 uM incubated for 48 hrs by SRB assay relative to control; type: functional; settings: read-out: GI
SF-268 = assay: Anticancer activity against human SF-268 cells assessed as cell growth inhibition at 10 uM incubated for 48 hrs by SRB assay relative to control; type: functional; settings: read-out: GI
K562 = assay: Anticancer activity against human K562 cells assessed as cell growth inhibition at 10 uM incubated for 48 hrs by SRB assay relative to control; type: functional; settings: read-out: GI
OVCAR-3 = assay: Anticancer activity against human OVCAR-3 cells assessed as cell growth inhibition at 10 uM incubated for 48 hrs by SRB assay relative to control; type: functional; settings: read-out: GI
HOP-92 = assay: Anticancer activity against human HOP-92 cells assessed as cell growth inhibition at 10 uM incubated for 48 hrs by SRB assay relative to control; type: functional; settings: read-out: GI
PC-3 = assay: Anticancer activity against human PC-3 cells assessed as cell growth inhibition at 10 uM incubated for 48 hrs by SRB assay relative to control; type: functional; settings: read-out: GI
TK-10 = assay: Anticancer activity against human TK-10 cells assessed as cell growth inhibition at 10 uM incubated for 48 hrs by SRB assay relative to control; type: functional; settings: read-out: GI
EKVX = assay: Anticancer activity against human EKVX cells assessed as cell growth inhibition at 10 uM incubated for 48 hrs by SRB assay relative to control; type: functional; settings: read-out: GI
HCT-15 = assay: Anticancer activity against human HCT-15 cells assessed as cell growth inhibition at 10 uM incubated for 48 hrs by SRB assay relative to control; type: functional; settings: read-out: GI
HT-29 = assay: Anticancer activity against human HT-29 cells assessed as cell growth inhibition at 10 uM incubated for 48 hrs by SRB assay relative to control; type: functional; settings: read-out: GI
SK-MEL-5 = assay: Anticancer activity against human SK-MEL-5 cells assessed as cell growth inhibition at 10 uM incubated for 48 hrs by SRB assay relative to control; type: functional; settings: read-out: GI
RPMI-8226 = assay: Anticancer activity against human RPMI-8226 cells assessed as cell growth inhibition at 10 uM incubated for 48 hrs by SRB assay relative to control; type: functional; settings: read-out: GI
SF-539 = assay: Anticancer activity against human SF-539 cells assessed as cell growth inhibition at 10 uM incubated for 48 hrs by SRB assay relative to control; type: functional; settings: read-out: GI
Carbonic anhydrase 9 = Carbonic anhydrase 9 (Homo sapiens, UniProt Q16790); assay: Inhibition of recombinant human CA 9 preincubated for 15 mins by phenol red dye based stopped flow CO2 hydration assay
MOLT-4 = assay: Anticancer activity against human MOLT-4 cells assessed as cell growth inhibition at 10 uM incubated for 48 hrs by SRB assay relative to control; type: functional; settings: read-out: GI
UO-31 = assay: Anticancer activity against human UO-31 cells assessed as cell growth inhibition at 10 uM incubated for 48 hrs by SRB assay relative to control; type: functional; settings: read-out: GI
T47D = assay: Anticancer activity against human T47D cells assessed as cell growth inhibition at 10 uM incubated for 48 hrs by SRB assay relative to control; type: functional; settings: read-out: GI
A498 = assay: Anticancer activity against human A498 cells assessed as cell growth inhibition at 10 uM incubated for 48 hrs by SRB assay relative to control; type: functional; settings: read-out: GI
OVCAR-5 = assay: Anticancer activity against human OVCAR-5 cells assessed as cell growth inhibition at 10 uM incubated for 48 hrs by SRB assay relative to control; type: functional; settings: read-out: GI
COLO 205 = assay: Anticancer activity against human COLO 205 cells assessed as cell growth inhibition at 10 uM incubated for 48 hrs by SRB assay relative to control; type: functional; settings: read-out: GI
LOX IMVI = assay: Anticancer activity against human LOX IMVI cells assessed as cell growth inhibition at 10 uM incubated for 48 hrs by SRB assay relative to control; type: functional; settings: read-out: GI
A549 = assay: Anticancer activity against human A549 cells assessed as cell growth inhibition at 10 uM incubated for 48 hrs by SRB assay relative to control; type: functional; settings: read-out: GI
NCI-H460 = assay: Anticancer activity against human NCI-H460 cells assessed as cell growth inhibition at 10 uM incubated for 48 hrs by SRB assay relative to control; type: functional; settings: read-out: GI
OVCAR-4 = assay: Anticancer activity against human OVCAR-4 cells assessed as cell growth inhibition at 10 uM incubated for 48 hrs by SRB assay relative to control; type: functional; settings: read-out: GI
Hs-578T = assay: Anticancer activity against human Hs-578T cells assessed as cell growth inhibition at 10 uM incubated for 48 hrs by SRB assay relative to control; type: functional; settings: read-out: GI
HOP-62 = assay: Anticancer activity against human HOP-62 cells assessed as cell growth inhibition at 10 uM incubated for 48 hrs by SRB assay relative to control; type: functional; settings: read-out: GI
NCI-H23 = assay: Anticancer activity against human NCI-H23 cells assessed as cell growth inhibition at 10 uM incubated for 48 hrs by SRB assay relative to control; type: functional; settings: read-out: GI
NCI-H522 = assay: Anticancer activity against human NCI-H522 cells assessed as cell growth inhibition at 10 uM incubated for 48 hrs by SRB assay relative to control; type: functional; settings: read-out: GI
OVCAR-8 = assay: Anticancer activity against human OVCAR-8 cells assessed as cell growth inhibition at 10 uM incubated for 48 hrs by SRB assay relative to control; type: functional; settings: read-out: GI
RXF 393 = assay: Anticancer activity against human RXF 393 cells assessed as cell growth inhibition at 10 uM incubated for 48 hrs by SRB assay relative to control; type: functional; settings: read-out: GI
MDA-MB-231 = assay: Anticancer activity against human MDA-MB-231 cells assessed as cell growth inhibition at 10 uM incubated for 48 hrs by SRB assay relative to control; type: functional; settings: read-out: GI
U-251 = assay: Anticancer activity against human U-251 cells assessed as cell growth inhibition at 10 uM incubated for 48 hrs by SRB assay relative to control; type: functional; settings: read-out: GI
MCF7 = assay: Anticancer activity against human MCF7 cells assessed as cell growth inhibition at 10 uM incubated for 48 hrs by SRB assay relative to control; type: functional; settings: read-out: GI
MDA-MB-468 = assay: Anticancer activity against human MDA-MB-468 cells assessed as cell growth inhibition at 10 uM incubated for 48 hrs by SRB assay relative to control; type: functional; settings: read-out: GI
786-0 = assay: Anticancer activity against human 786-0 cells assessed as cell growth inhibition at 10 uM incubated for 48 hrs by SRB assay relative to control; type: functional; settings: read-out: GI
SK-MEL-2 = assay: Anticancer activity against human SK-MEL-2 cells assessed as cell growth inhibition at 10 uM incubated for 48 hrs by SRB assay relative to control; type: functional; settings: read-out: GI
Malme-3M = assay: Anticancer activity against human Malme-3M cells assessed as cell growth inhibition at 10 uM incubated for 48 hrs by SRB assay relative to control; type: functional; settings: read-out: GI
SN12C = assay: Anticancer activity against human SN12C cells assessed as cell growth inhibition at 10 uM incubated for 48 hrs by SRB assay relative to control; type: functional; settings: read-out: GI
KM12 = assay: Anticancer activity against human KM12 cells assessed as cell growth inhibition at 10 uM incubated for 48 hrs by SRB assay relative to control; type: functional; settings: read-out: GI
SNB-75 = assay: Anticancer activity against human SNB-75 cells assessed as cell growth inhibition at 10 uM incubated for 48 hrs by SRB assay relative to control; type: functional; settings: read-out: GI

NS(=O)(=O)c1ccc(Nc2nc(N/N=C/c3ccc4c(c3)OCO4)nc(Nc3ccccc3)n2)cc1
inhibition of growth at 10 µM (SNB-19): 44% | inhibition of growth at 10 µM (SF-268): 57% | inhibition of growth at 10 µM (K562): 66% | inhibition of growth at 10 µM (OVCAR-3): 51% | inhibition of growth at 10 µM (HOP-92): 33% | inhibition of growth at 10 µM (PC-3): 40% | inhibition of growth at 10 µM (TK-10): < 10% | inhibition of growth at 10 µM (EKVX): 26% | inhibition of growth at 10 µM (HCT-15): 17% | inhibition of growth at 10 µM (HT-29): 59% | inhibition of growth at 10 µM (SK-MEL-5): 45% | inhibition of growth at 10 µM (RPMI-8226): 45% | inhibition of growth at 10 µM (SF-539): 83% | Ki (Carbonic anhydrase 9): 29.3 nM | inhibition of growth at 10 µM (MOLT-4): 88% | inhibition of growth at 10 µM (UO-31): 23% | inhibition of growth at 10 µM (T47D): 45% | inhibition of growth at 10 µM (A498): 48% | inhibition of growth at 10 µM (OVCAR-5): < 10% | inhibition of growth at 10 µM (COLO 205): 50% | inhibition of growth at 10 µM (LOX IMVI): 73% | inhibition of growth at 10 µM (A549): 25% | inhibition of growth at 10 µM (NCI-H460): 97% | inhibition of growth at 10 µM (OVCAR-4): 44% | inhibition of growth at 10 µM (Hs-578T): 47% | inhibition of growth at 10 µM (HOP-62): 70% | inhibition of growth at 10 µM (NCI-H23): 74% | inhibition of growth at 10 µM (NCI-H522): 39% | inhibition of growth at 10 µM (OVCAR-8): 50% | inhibition of growth at 10 µM (RXF 393): 77% | inhibition of growth at 10 µM (MDA-MB-231): 40% | inhibition of growth at 10 µM (U-251): 44% | inhibition of growth at 10 µM (MCF7): 81% | inhibition of growth at 10 µM (MDA-MB-468): 53% | inhibition of growth at 10 µM (786-0): 38% | inhibition of growth at 10 µM (SK-MEL-2): 44% | inhibition of growth at 10 µM (Malme-3M): 41% | inhibition of growth at 10 µM (SN12C): 45% | inhibition of growth at 10 µM (KM12): 29% | inhibition of growth at 10 µM (SNB-75): 46%

NS(=O)(=O)c1ccc(Nc2nc(N/N=C/c3c[nH]c4ccccc34)nc(Nc3ccccc3)n2)cc1
inhibition of growth at 10 µM (SNB-19): 43% | inhibition of growth at 10 µM (SF-268): 40% | inhibition of growth at 10 µM (K562): 77% | inhibition of growth at 10 µM (OVCAR-3): 73% | inhibition of growth at 10 µM (HOP-92): 38% | inhibition of growth at 10 µM (PC-3): 73% | inhibition of growth at 10 µM (TK-10): 20% | inhibition of growth at 10 µM (EKVX): 32% | inhibition of growth at 10 µM (HCT-15): 24% | inhibition of growth at 10 µM (HT-29): 68% | inhibition of growth at 10 µM (SK-MEL-5): 60% | inhibition of growth at 10 µM (RPMI-8226): 105% | inhibition of growth at 10 µM (SF-539): 52% | Ki (Carbonic anhydrase 9): 25.8 nM | inhibition of growth at 10 µM (MOLT-4): 80% | inhibition of growth at 10 µM (UO-31): 50% | inhibition of growth at 10 µM (T47D): 64% | inhibition of growth at 10 µM (A498): 48% | inhibition of growth at 10 µM (OVCAR-5): 12% | inhibition of growth at 10 µM (COLO 205): 59% | inhibition of growth at 10 µM (LOX IMVI): 110% | inhibition of growth at 10 µM (A549): 21% | inhibition of growth at 10 µM (NCI-H460): 58% | inhibition of growth at 10 µM (OVCAR-4): 40% | inhibition of growth at 10 µM (Hs-578T): 57% | inhibition of growth at 10 µM (HOP-62): 36% | inhibition of growth at 10 µM (NCI-H23): 52% | inhibition of growth at 10 µM (NCI-H522): 68% | inhibition of growth at 10 µM (OVCAR-8): 62% | inhibition of growth at 10 µM (RXF 393): 125% | inhibition of growth at 10 µM (MDA-MB-231): 51% | inhibition of growth at 10 µM (U-251): 71% | inhibition of growth at 10 µM (MCF7): 81% | inhibition of growth at 10 µM (MDA-MB-468): 47% | inhibition of growth at 10 µM (786-0): 58% | inhibition of growth at 10 µM (SK-MEL-2): 32% | inhibition of growth at 10 µM (Malme-3M): 53% | inhibition of growth at 10 µM (SN12C): 59% | inhibition of growth at 10 µM (KM12): 72% | inhibition of growth at 10 µM (SNB-75): 29%
